# PubChem BioAssay (NCI)
#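 Test compounds were applied to cells in 96-well plates for 48 hours at 5 doses. GI50 marks 50% less growth. TGI: total growth inhibition.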 *1 amine or outer side, *2 acyl side, *3 side chain or, on linkers, in order; H or OH if unused. Where a SMILES comes first, the peptide text is derived from it. Bridges are numbered along the chain shown (N, C = ends). [ ]: non-standard residue; d: D form. The star is where a group is joined. Phe(3,5-F2) = N[C@@H](Cc1cc(F)cc(F)c1)C(=O)O; Pro(4R-Me) = C[C@H]1CN[C@H](C(=O)O)C1; aThr = C[C@H](O)[C@H](N)C(=O)O; Pip = O=C(O)[C@@H]1CCCCN1; X10 = Fc1cc(C2CC2)ccc1N*; CO = O=C([*:1])[*:2]
# What was measured:
# Assay in all cases: DTP human tumour cell line panel, 48 h
# MALME-3M melanoma = system: MALME-3M melanoma
# BT-549 breast = system: BT-549 breast
# SK-OV-3 ovarian = system: SK-OV-3 ovarian
# PC-3 prostate = system: PC-3 prostate
# IGROV1 ovarian = system: IGROV1 ovarian
# CAKI-1 renal = system: CAKI-1 renal
# SF-539 CNS = system: SF-539 CNS
# HOP-62 NSCLC = system: HOP-62 NSCLC
# SF-268 CNS = system: SF-268 CNS
# A549 NSCLC = system: A549 NSCLC
SMILES,GI50 (MALME-3M melanoma) [nM],TGI (MALME-3M melanoma) [µM],GI50 (BT-549 breast) [nM],TGI (BT-549 breast) [µM],GI50 (SK-OV-3 ovarian) [nM],TGI (SK-OV-3 ovarian) [µM],GI50 (PC-3 prostate) [nM],TGI (PC-3 prostate) [µM],GI50 (IGROV1 ovarian) [nM],TGI (IGROV1 ovarian) [µM],GI50 (CAKI-1 renal) [nM],TGI (CAKI-1 renal) [µM],GI50 (SF-539 CNS) [nM],TGI (SF-539 CNS) [µM],GI50 (HOP-62 NSCLC) [nM],TGI (HOP-62 NSCLC) [µM],GI50 (SF-268 CNS) [nM],GI50 (A549 NSCLC) [nM],TGI (A549 NSCLC) [µM],TGI (SF-268 CNS) [µM]
COc1cc(/C=N\NC(=O)CN2CCN(c3cc4c(cc3F)c(=O)c(C(=O)N/N=C/c3cc(OC)c(OC)c(OC)c3)cn4C3CC3)CC2)cc(OC)c1OC,235,0.712,199,0.461,718,> 53.1,244,0.656,365,11.8,> 50500,> 100,212,0.522,374,21,292,> 24600,> 100,–
COC(=O)/C=C1\S/C(=N\NC(=O)c2cc3ccc2/C=C\c2ccc(cc2)/C=C\3)N(c2ccccc2)C1=O,3270,21.4,2220,5.35,3550,75.3,1710,3.63,1660,3.27,3740,30,1790,3.32,2680,6.97,3090,2830,8.37,11.2
COc1ccc2c(c1)sc1nc(-c3ccccc3)c(-c3cccc4ccccc34)n12,> 100000,> 100,1150,> 93.2,369,2.79,500,> 100,2070,> 100,792,> 100,385,–,538,–,878,816,> 100,> 100
CC(=O)OC1OC([C@@H]2c3cccc(O)c3C(=O)c3c(O)cc(C)cc32)C(O)C(O)C1O (stereo partly drawn),28.8,0.0902,18.1,0.778,134,3.17,< 10,–,–,–,26.9,0.241,41.9,1.47,98.5,0.995,106,109,1.94,4.52
CN(C)c1ccc(/C=C\C2=[N+](C)c3ccccc3C2(C)C)cc1,456,16.5,423,11.2,696,> 24.4,195,–,458,> 50.1,1820,20.6,1120,16.7,842,21.6,654,1060,> 62,34
COc1cnc2c(c1)C(=O)c1c-2n(CCCN2CCOCC2)c(=O)c2cc(F)ccc12,503,3.42,523,> 100,282,1.92,369,> 100,354,> 100,–,–,288,1.08,187,0.991,265,–,–,> 100
O=[N+]([O-])c1ccc2c(c1)/C(=N/N=C1c3ccccc3Cc3ccccc31)c1cc([N+](=O)[O-])cc([N+](=O)[O-])c1-2,–,6.46,–,2.87,–,27.3,–,10.2,–,3.04,–,9.36,–,7.21,–,7.01,–,–,25.3,5.81
Nc1ccccc1C#C/C=C\C#Cc1ccccc1OC(F)(F)F,11400,38.1,5780,22.5,7120,67.7,5980,> 100,5640,39.9,4420,28.2,3500,13.3,6100,20.6,6440,5990,> 100,32
"C[C@@H]1C[C@H]2C(=O)O[C@@H](C)[C@H](NC(=O)[C@H](Cc3cc(F)cc(F)c3)NC(=O)Nc3ccc(C4CC4)cc3F)C(=O)N3CCC[C@H]3C(=O)N3CCCC[C@H]3C(=O)N[C@@H](C)C(=O)N2C1 ({X10-CO}-[Phe(3,5-F2)][aThr]P[Pip]A[Pro(4R-Me)]; ester 2-C)",63.5,5.9,58.8,> 22.4,50.4,16,35.5,> 36,149,18.5,40,10.3,75.2,3.56,54.2,> 48.2,49,50.7,> 100,> 46.9
NC(N)=NS(=O)(=O)c1ccc(Nc2c3ccccc3nc3c(C(=O)NCCO)cccc23)cc1,16700,–,33800,–,51600,–,22200,–,17800,–,22800,–,29500,–,20000,–,16300,20100,–,–
O=C(Nc1ccc(F)cc1)Nc1ccc(Cl)c([N+](=O)[O-])c1,2370,7.2,2900,10.8,2620,7.52,1600,11.1,4770,18.6,–,–,3860,14.3,3780,15.9,4420,3090,16.3,17.3
COc1cc2c(cc1OCCCCN1CCN(CC(=O)Nc3ccc(Cl)cc3C(=O)c3ccccc3Cl)CC1)N=CC1CCCN1C2=O (stereo not drawn),186,0.346,292,0.799,380,1.22,238,0.547,229,0.519,280,0.676,236,0.501,196,0.411,268,–,–,0.711
FC(F)(F)c1cccc(Nc2nc(-c3ccccc3)nc3ncccc23)c1,5630,28.7,5520,30.6,11000,24,3340,13.2,4250,16.8,3860,18.7,5060,17.5,7180,22.2,6760,–,–,44.3
